The subject of one series is Slc3a1 knockout mice. Put plainly: In vivo activity in a genetic mouse model, four-week oral treatment (bladder stones, urine amino acids). The procedure: Slc3a1 knockout mice in a mixed 129/C57BL6 background were used in the studies described here. Two-mouth old knockout male mice for LH707 or LH708 treatment were selected. […] Most male mice over age six months have bladder stones and some have kidney stones as well. Female knockout mice have crystalluria but no stones until age over 12 months. Mouse genotypes and gender were determined by PCR amplification of tail DNA. Based on previous observations, Slc3a1 heterozygotes have no apparent phenotype so they were used in place of wild-type mice as needed. Animal studies were conducted in accordance with Rutgers University IACUC policies.
LH707 dihydrochloride (MW 451.43) and LH708 tetrahydrochloride (MW 550.44) were prepared fresh daily (2.9 mM in water) and 200 μl was administered to Slc3a1 knockout male mice (body weight 20 g) by gavage daily for four weeks using a 20G disposable flexible plastic feeding needle with a soft tip (Model FTP-20-30, Instech Laboratories, Inc., Plymouth Meeting, Pa.).
This dose is equivalent to 29 μmol/kg (29 mg/m^2 assuming a body surface area of 0.007 m^2). […]
(§1) Urine samples (0.15 to 1.1 ml) were collected by placing the mice in metabolic cages for four hours or longer and frozen at −20° C. The four-week treatment samples were analyzed for amino acids by ion exchange chromatography on a Biochrom analyzer (Biochrom US, Holliston, Mass.) and the amino acid levels normalized to nmol/mg creatinine. The seven-day treatment samples were analyzed for LH707 and LH708 by LC-MS (see below).
Mice were sacrificed after urine collection and the bladder and kidneys removed and placed in 10% formalin. […] This application was evaluated for the assessment of quantitative parameters such as bladder volume, stone volume, and stone number from the scanned 3D datasets.
After micro CT scanning, bladders were weighed and the stones removed, weighed, counted, and measured in the longest dimension (see FIG. 5). […]

A short description of series [1]: Compound concentration and volume of mouse urine after 7 daily oral doses (LC-MS/MS). Type of series: in vivo, mice. The conditions noted are these: for oral bioavailability: concluded from urine concentrations after oral dosing. How it is done: This dose is equivalent to 29 μmol/kg (29 mg/m^2 assuming a body surface area of 0.007 m^2). To determine LH707/LH708 absorption and excretion, these compounds were administered daily for seven days and urine samples collected before and immediately after the last treatment.
as §1
It was determined that the concentrations of LH707/LH708 in the mine samples collected using LC-MS/MS in positive MRM mode (LH707, 379.0→188.9; LH708, 203.1→101.3) on a Transcend LX2 system (Thermo Fisher, Waltham, Mass.) coupled to an API 4000 (AB Sciex, Framingham, Mass.). […] The gradient was performed at a flow rate of 750 μL/min as follows: 95% B for 90 s, 95 to 5% B in 42 s, 5% B for 30 s.

The nature of series [2]: Fluorescence assay for inhibition of L-cystine crystal formation (aqueous solubility of L-cystine, OPA/NBC). Type of series: physicochemical. The following applies: for fold increase in potency/activity as compared to CDME: at increasing the aqueous solubility of L-cystine; for Ratio: improvement in potency over the control CDME. How it is done:
As used herein, the EC2x's are the concentrations required of the candidate compounds to double the aqueous solubility of cystine and were determined to assess drug potency and potential dosing regimens for in vivo use. One of ordinary skill in the art is readily able to ascertain such information using commonly known methodologies.
Another aspect of the present invention is directed to the processes of determining the concentration of L-cystine using a fluorescence assay after OPA/NBC derivatization. In at least one embodiment with respect to this aspect of the invention, the concentration of the L-cystine was assessed by a fluorescence assay. Accordingly, the inventors developed a fluorescence-based assay using O-phthaldialdehyde (OPA) and N-Boc-cysteine (NBC) to accurately measure the concentration of L-cystine in aqueous solutions using a similar protocol we previously reported. OPA/NBC are popular reagents used for precolumn derivatization of amino acids in HPLC. This derivatization is fast and simple to operate. However, the reaction of OPA with the disulfide cystine and NBC yielded derivatives with weak fluorescence. The disulfide in cystine was reduced and then alkylated with iodoacetic acid to form S-carboxymethylcysteine, which yielded OPA/NBS derivatives with normal fluorescence. L-Cystine solution was thus used to construct a standard curve. L-Cystine first reacted with DTT for 10 min, followed by reaction with iodoacetic acid for 15 min, then reacted with OPA and NBC for 3 min. The final mixture was pipetted into 384-well plate and the fluorescence intensity was read at Ex 340 nm/Em 460 nm. A linear standard curve was obtained in the concentration range between 50 μM and 400 μM (see FIG. 3).
Formation of supersaturation solution—a supersaturated solution was formed by dissolving 21 mg of L-cystine in 30 mL of Millipore water (˜3 mM) under reflux at 100° C. for 20 min until the L-cystine was completely dissolved. The supersaturated solution was then allowed to cool slowly with stirring for 75 min.
Construction of standard curves—L-Cystine (5 mg) was dissolved in Millipore water (34.7 mL) to form a 0.6 mM solution as a stock solution. Then, L-cystine solution was diluted to 0.4, 0.3, 0.2, 0.1, 0.05 mM solution. 10 uL of each L-cystine solutions, 90 uL of 0.1 M dibasic sodium phosphate solution, and 10 uL of DTT solution (12.5 mM) were mixed at r.t. for 10 min, before the addition of 10 uL of iodoacetic acid (100 mM) and continued incubation at r.t. for an additional 15 min. This was then followed by the addition of 10 uL of OPA (100 mM in methanol) and 10 uL of NBC (100 mM in methanol). The derivatization was allowed to proceed for 3 min before 40 uL of the mixture was plated in a 384-well plate and read at Ex 340 nm/Em 460 nm. The standard curve was repeated for each set of experiments and used to calculate the concentration of L-cystine in each sample.
Determination of L-cystine concentration—All test compounds were dissolved in water to form 10 mM stock solution. 5 uL of each solution was added to 500 uL L-cystine supersaturated solution. The mixtures were allowed to stand at 25° C. for 72 h. At the end of incubation, the mixtures were centrifuged at 10,000 rpm for 4 min and the supernatants were diluted 2-fold for concentration measurement. Each diluted mixture (10 uL), 0.1 M dibasic sodium phosphate solution (90 uL), and 10 uL of DTT solution (12.5 mM) were mixed at r.t. for 10 min, before the addition of 10 uL of iodoacetic acid (100 mM) and continued incubation at r.t. for an additional 15 min. Derivatization was performed by the addition of 10 uL of OPA (100 mM in methanol) and 10 uL of NBC (100 mM in methanol) for 3 min. 40 uL of the derivatized mixture was plated in a 384-well plate and fluorescence was read at Ex 340 nm/Em 460 nm to derive the concentrations of the original mixtures. […]

For series [3] the following is noted: AFM, prior report; cited from earlier work.
The next series relates to cell culture. The conditions noted are these: cell culture experiments, prior report; cited from earlier work.
The conditions of series [4]: prior report; cited from earlier work.
For a further series, the system named is rats. The conditions noted are these: prior report; cited from earlier work.
Setting [5] is: concentration required to double the aqueous solubility of cystine, water, 25° C., 72 h.
[6] abbreviates: effective concentration required to double the solubility of L-cystine in water.

The structures appear in SMILES notation.

In the case of `CN1CCN(C(=O)[C@@H](N)CSSC[C@H](N)C(=O)N2CCN(C)CC2)CC1` [LH708, L-Cystine bis(N′-methylpiperazide)], in the series with Slc3a1 knockout mice (Slc3a1 knockout male mice, gavage daily for four weeks, LH708 versus LH707), the “efficacy at inhibiting cystine stone formation” value is “better efficacy”. In addition, in the series on Slc3a1 knockout mice (four-week treatment), the “urine concentration of other amino acids (ornithine, lysine, arginine, proline, valine, leucine, phenylalanine)” value is reported as “no significant changes”. The “concentration of cystine in mouse urine as compared to before treatment” value in the series with Slc3a1 knockout mice (four-week treatment, paired t-test) is reported as “significantly increased”. Moreover, the “compound concentration in mouse urine” value in series [1] (after 7 daily oral doses) is listed as “micromolar concentrations”. Further, the “compound concentration in urine of Slc3a1 knockout mice versus control or normal mice” value in series [1] (after 7 daily oral doses, FIG. 7) is on record as “significantly higher concentrations”. The oral bioavailability result in series [1] is given as “readily bioavailable”. In addition, the “fold increase in potency/activity as compared to CDME” value in series [2] (listed as CDNMP) came to 24 fold; in series [2] (listed as VIII), 24.41 fold. The EC2x in series [2] (setting [5]) amounted to 0.26 mM; in series [2] (setting [6]), 0.00026 mM. Besides, the Ratio in series [2] is 24.4. Moreover, the “concentrations at which inhibition of cystine crystallization in vitro occurs” value in series [2] was “submicromolar”.

`COC(=O)[C@@H](N)CSSC[C@H](N)C(=O)OC` [CDME, L-cystine dimethylester]: in series [3], the “growth velocity of six symmetry-equivalent {100} steps of L-cystine crystals” value was “dramatically reduce”. The “concentration causing loss of cell viability” value in the series with cell culture is listed as “approximately 1 mM”. For the same compound, the “concentration that almost completely inhibits the crystallization of L-cystine in water” value in series [4] is “above 2 mg/L”. Moreover, the “dosage demonstrating adverse effects” value with rats was “approximately 500 mg/kg per day”. Also, the EC2x amounted to 6.37 mM in series [2] (setting [5]) and 0.00353 mM in series [2] (setting [6]). Further, in series [2], the Ratio was 1.0.

As to `N[C@@H](CSSC[C@H](N)C(=O)NC1CC1)C(=O)NC1CC1` [LH704, L-Cystine bis(cyclopropylamide)], in series [2] (setting [5]), the EC2x was 3.53 mM. Besides, the Ratio in series [2] is 1.8.

On to `COC(=O)[C@@H](N)CSSC[C@H](N)C(=O)O` [CME, L-cystine methylester], for which the “growth velocity of six symmetry-equivalent {100} steps of L-cystine crystals” value in series [3] is on record as “dramatically reduce”.

For `N[C@@H](CSSC[C@H](N)C(=O)N1CCCCC1)C(=O)N1CCCCC1` [LH706, L-Cystine bispiperidine], the EC2x in series [2] (setting [5]) is 1.59 mM. For the same compound, the Ratio in series [2] was 4.0.

In series [2] (setting [5]), `N[C@@H](CSSC[C@H](N)C(=O)NCCO)C(=O)NCCO` [LH709, L-Cystine diethanolamide] yielded an EC2x of 2.02 mM. In addition, the Ratio in series [2] came to 3.2.

`N[C@@H](CSSC[C@H](N)C(=O)N1CCOCC1)C(=O)N1CCOCC1` [LH707]: the “compound concentration in mouse urine” value in series [1] (after 7 daily oral doses) is recorded as “micromolar concentrations”. Moreover, the oral bioavailability result in series [1] was “readily bioavailable”. The “fold increase in potency/activity as compared to CDME” value in series [2] (listed as CDMOR) is listed as “about 7 fold”; in series [2] (listed as VII), 7.44 fold. The EC2x worked out at 0.86 mM in series [2] (setting [5]) and 0.00086 mM in series [2] (setting [6]). Besides, the Ratio in series [2] is given as 7.4. In addition, the “concentrations at which inhibition of cystine crystallization in vitro occurs” value in series [2] is listed as “submicromolar”.

The values are drawn from patent publication US11420949B2, “Cystine diamide analogs for the prevention of cystine stone formation in cystinuria” (Rutgers, The State University of New Jersey, priority 2013, dated 2022).
